Patent US20260242419A1, “A CYCLIC PEPTIDE FOR TRAPPING INTERLEUKIN-1 BETA” (Merck Sharp & Dohme LLC, priority 2023, published 2026)
pIC50: −log10 of the molar value. Starred links: 1 amine or outer side, 2 acyl side, 3 side chain; linkers in the order of their positions; H or OH if unused. Non-standard residues stand in square brackets, D forms with d. Residues, ends and D or L forms follow the SMILES beside them. Trp(βS-Me,4-F) = C[C@@H](c1c[nH]c2cccc(F)c12)[C@H](N)C(=O)O; Bip(4'-COOH) = N[C@@H](Cc1ccc(-c2ccc(C(=O)O)cc2)cc1)C(=O)O; dPro(4R-Bzl(4-F)) = O=C(O)[C@H]1C[C@@H](Cc2ccc(F)cc2)CN1; X3 = CC(=O)NCCOc1ccc(C[C@H](N[*:1])C(=O)[*:2])cn1; Ala(pyrimidin-5-yl) = N[C@@H](Cc1cncnc1)C(=O)O; Phe(4-COOH) = N[C@@H](Cc1ccc(C(=O)O)cc1)C(=O)O; Pro(cis-4-F) = O=C(O)[C@@H]1C[C@H](F)CN1; AEF = NCCOc1ccc(C[C@H](N)C(=O)O)cc1; 4Pal = N[C@@H](Cc1ccncc1)C(=O)O; Orn = NCCC[C@H](N)C(=O)O; Dab = NCC[C@H](N)C(=O)O; Dap = NC[C@H](N)C(=O)O; Aib = CC(C)(N)C(=O)O

The molecules below were run against T1, IL-1β (Homo sapiens, UniProt P01584) (assay: IL-6 assay in MRC5 cells: inhibition of IL-1β induced IL-6 secretion (AlphaLISA)). Conditions: inhibition of IL-1β induced IL-6 secretion in MRC5 cells; read-out: MRC5 IC50.
T1 construct: purchased BioLegend 579404
T1 sequence (P01584 117-269): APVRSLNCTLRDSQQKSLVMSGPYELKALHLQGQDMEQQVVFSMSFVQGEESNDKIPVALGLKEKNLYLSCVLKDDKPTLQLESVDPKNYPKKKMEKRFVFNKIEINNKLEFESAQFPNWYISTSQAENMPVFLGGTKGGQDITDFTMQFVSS
Format: cell-based
Description: Procedure for IL-6 Assay in MRC5 Cells
The inhibition of IL-1β induced IL-6 secretion was evaluated in MRC5 cells. Recombinant human IL-1β (BioLegend 579404) at 2λ EC80 concentration was prepared in seeding medium. EMEM (ATCC 30-2003) with 0.025% BSA (Sigma A9576), 1×penicillin/streptomycin (Gibco 15070-063), 1×NEAA (Gibco 11140-050), 1×GlutaMax (Gibco 35050-061), and 1×sodium pyruvate (Gibco 11360-070), 20 μL of IL-1β was added to a 384-well collagen-coated plate (Corning 354664) and pre-incubated at ambient temperature for 1 hour with 200 nL of compound dispensed using an ECHO 555 liquid handler. Human lung fibroblast MRC5 cells (ATCC CCL-171) were added at a density of 3000 cells/20 μL per well. The cells were prepared by passaging three times in growth medium, EMEM (ATCC 30-2003) with 10% fetal bovine serum (Gibco 16140-071), 1×penicillin/streptomycin (Gibco 15070-063), 1×NEAA (Gibco 11140-050), 1×GlutaMax (Gibco 35050-061), and 1×sodium pyruvate (Gibco 11360-070) in collagen-coated T175 flasks (Greiner 661950) and harvested in seeding medium after 5 minutes of 0.25% trypsin-EDTA (Gibco 25200-056) digestion. The 384-well collagen-coated plate, containing a final volume of 40 μL, was incubated at 37° C., 5% CO2 overnight. 5 μL of the conditioned medium was transferred to a 384-well AlphaLISA plate (PerkinElmer 6005350) for detection of IL-6 using the human AlphaLISA IL-6 kit (PerkinElmer AL223F) as per the manufacturer's protocol. 20 μL of the acceptor bead/biotinylated antibody mix was added to the 384-well AlphaLISA plate and incubated for 1 hour at ambient temperature. The donor bead mix was protected from light and 25 μL was added to the plate and incubated for 30 minutes at ambient temperature. The AlphaLISA plate was read on an EnVision multimode plate reader (Perkin Elmer model 2104) using the AlphaScreen setting (laser exc at 680 nm and emis at […]). Dose response curves and IC50 values were analyzed using a 4-parameter logistic equation in Spotfire software (Tibco, Palo Alto, CA).

Row | SMILES | pIC50
1 | C[C@@H](c1c[nH]c2cccc(F)c12)[C@@H]1NC(=O)[C@@H]2C[C@H](F)CN2C(=O)CNC(=O)[C@H](Cc2ccc(C(=O)O)cc2)NC(=O)[C@H](Cc2ccncc2)NC(=O)[C@H](Cc2ccc(-c3ccc(C(=O)O)cc3)cc2)NC(=O)[C@H]2C[C@@H](Cc3ccc(F)cc3)CN2C(=O)CNC(=O)[C@H](CCN)NC(=O)[C@H](CCC(N)=O)NC(=O)[C@H](Cc2ccncc2)NC(=O)C(C)(C)NC(=O)[C@H](Cc2c[nH]c3ccccc23)NC(=O)[C@H](CCC(=O)O)NC(=O)C(C)(C)NC1=O [Example 2] (cyclo([Bip(4'-COOH)][4Pal][Phe(4-COOH)]G[Pro(cis-4-F)][Trp(βS-Me,4-F)][Aib]EW[Aib][4Pal]Q[Dab]G[dPro(4R-Bzl(4-F))])) | 10.64
2 | C[C@@H](c1c[nH]c2cccc(F)c12)[C@@H]1NC(=O)[C@@H]2C[C@H](F)CN2C(=O)CNC(=O)[C@H](Cc2ccc(C(=O)O)cc2)NC(=O)[C@H](Cc2ccncc2)NC(=O)[C@H](Cc2ccc(-c3ccc(C(=O)O)cc3)cc2)NC(=O)[C@H]2C[C@@H](Cc3ccc(F)cc3)CN2C(=O)CNC(=O)[C@H](CO)NC(=O)[C@H](CCC(N)=O)NC(=O)[C@H](Cc2cncnc2)NC(=O)C(C)(C)NC(=O)[C@H](Cc2c[nH]c3ccccc23)NC(=O)[C@H](CCC(=O)O)NC(=O)C(C)(C)NC1=O [Example 3] (cyclo([Bip(4'-COOH)][4Pal][Phe(4-COOH)]G[Pro(cis-4-F)][Trp(βS-Me,4-F)][Aib]EW[Aib][Ala(pyrimidin-5-yl)]QSG[dPro(4R-Bzl(4-F))])) | 10.43
3 | C[C@@H](c1c[nH]c2cccc(F)c12)[C@@H]1NC(=O)[C@@H]2C[C@H](F)CN2C(=O)CNC(=O)[C@H](Cc2ccc(C(=O)O)cc2)NC(=O)[C@H](Cc2ccncc2)NC(=O)[C@H](Cc2ccc(-c3ccc(C(=O)O)cc3)cc2)NC(=O)[C@H]2C[C@@H](Cc3ccc(F)cc3)CN2C(=O)CNC(=O)[C@H](CCN)NC(=O)[C@H](CCC(N)=O)NC(=O)[C@H](Cc2cncnc2)NC(=O)C(C)(C)NC(=O)[C@H](Cc2c[nH]c3ccccc23)NC(=O)[C@H](CCC(=O)O)NC(=O)C(C)(C)NC1=O [Example 4] (cyclo([Bip(4'-COOH)][4Pal][Phe(4-COOH)]G[Pro(cis-4-F)][Trp(βS-Me,4-F)][Aib]EW[Aib][Ala(pyrimidin-5-yl)]Q[Dab]G[dPro(4R-Bzl(4-F))])) | 10.51
4 | C[C@@H](c1c[nH]c2cccc(F)c12)[C@@H]1NC(=O)[C@@H]2C[C@H](F)CN2C(=O)CNC(=O)[C@H](Cc2ccc(C(=O)O)cc2)NC(=O)[C@H](Cc2ccncc2)NC(=O)[C@H](Cc2ccc(-c3ccc(C(=O)O)cc3)cc2)NC(=O)[C@H]2C[C@@H](Cc3ccc(F)cc3)CN2C(=O)CNC(=O)[C@H](CCN)NC(=O)[C@H](CCC(N)=O)NC(=O)[C@H](CO)NC(=O)C(C)(C)NC(=O)[C@H](Cc2c[nH]c3ccccc23)NC(=O)[C@H](CO)NC(=O)C(C)(C)NC1=O [Example 5] (cyclo([Bip(4'-COOH)][4Pal][Phe(4-COOH)]G[Pro(cis-4-F)][Trp(βS-Me,4-F)][Aib]SW[Aib]SQ[Dab]G[dPro(4R-Bzl(4-F))])) | 10.41
5 | C[C@@H](c1c[nH]c2cccc(F)c12)[C@@H]1NC(=O)[C@@H]2C[C@H](F)CN2C(=O)CNC(=O)[C@H](Cc2ccc(C(=O)O)cc2)NC(=O)[C@H](Cc2ccncc2)NC(=O)[C@H](Cc2ccc(-c3ccc(C(=O)O)cc3)cc2)NC(=O)[C@H]2C[C@@H](Cc3ccc(F)cc3)CN2C(=O)CNC(=O)[C@H](CN)NC(=O)[C@H](CCC(N)=O)NC(=O)[C@H](Cc2cncnc2)NC(=O)C(C)(C)NC(=O)[C@H](Cc2c[nH]c3ccccc23)NC(=O)[C@H](CCC(=O)O)NC(=O)C(C)(C)NC1=O [Example 7] (cyclo([Bip(4'-COOH)][4Pal][Phe(4-COOH)]G[Pro(cis-4-F)][Trp(βS-Me,4-F)][Aib]EW[Aib][Ala(pyrimidin-5-yl)]Q[Dap]G[dPro(4R-Bzl(4-F))])) | 10.59
6 | C[C@@H](c1c[nH]c2cccc(F)c12)[C@@H]1NC(=O)[C@@H]2C[C@H](F)CN2C(=O)CNC(=O)[C@H](Cc2ccc(C(=O)O)cc2)NC(=O)[C@H](Cc2ccncc2)NC(=O)[C@H](Cc2ccc(-c3ccc(C(=O)O)cc3)cc2)NC(=O)[C@H]2C[C@@H](Cc3ccc(F)cc3)CN2C(=O)CNC(=O)[C@H](CCCN)NC(=O)[C@H](CCC(N)=O)NC(=O)[C@H](Cc2cncnc2)NC(=O)C(C)(C)NC(=O)[C@H](Cc2c[nH]c3ccccc23)NC(=O)[C@H](CCC(=O)O)NC(=O)C(C)(C)NC1=O [Example 8] (cyclo([Bip(4'-COOH)][4Pal][Phe(4-COOH)]G[Pro(cis-4-F)][Trp(βS-Me,4-F)][Aib]EW[Aib][Ala(pyrimidin-5-yl)]Q[Orn]G[dPro(4R-Bzl(4-F))])) | 10.59
7 | C[C@@H](c1c[nH]c2cccc(F)c12)[C@@H]1NC(=O)[C@@H]2C[C@H](F)CN2C(=O)CNC(=O)[C@H](Cc2ccc(C(=O)O)cc2)NC(=O)[C@H](Cc2ccncc2)NC(=O)[C@H](Cc2ccc(-c3ccc(C(=O)O)cc3)cc2)NC(=O)[C@H]2C[C@@H](Cc3ccc(F)cc3)CN2C(=O)CNC(=O)[C@H](CCCCN)NC(=O)[C@H](CCC(N)=O)NC(=O)[C@H](Cc2cncnc2)NC(=O)C(C)(C)NC(=O)[C@H](Cc2c[nH]c3ccccc23)NC(=O)[C@H](CCC(=O)O)NC(=O)C(C)(C)NC1=O [Example 9] (cyclo([Bip(4'-COOH)][4Pal][Phe(4-COOH)]G[Pro(cis-4-F)][Trp(βS-Me,4-F)][Aib]EW[Aib][Ala(pyrimidin-5-yl)]QKG[dPro(4R-Bzl(4-F))])) | 10.55
8 | CC(=O)NCCOc1ccc(C[C@@H]2NC(=O)[C@H]3C[C@@H](Cc4ccc(F)cc4)CN3C(=O)CNC(=O)[C@H](CCN)NC(=O)[C@H](CCC(N)=O)NC(=O)[C@H](Cc3cncnc3)NC(=O)C(C)(C)NC(=O)[C@H](Cc3c[nH]c4ccccc34)NC(=O)[C@H](CCC(=O)O)NC(=O)C(C)(C)NC(=O)[C@H]([C@@H](C)c3c[nH]c4cccc(F)c34)NC(=O)[C@@H]3C[C@H](F)CN3C(=O)CNC(=O)[C@H](Cc3ccc(C(=O)O)cc3)NC(=O)[C@H](Cc3ccncc3)NC2=O)cc1 [Example 10] (cyclo([AEF](Ac)[4Pal][Phe(4-COOH)]G[Pro(cis-4-F)][Trp(βS-Me,4-F)][Aib]EW[Aib][Ala(pyrimidin-5-yl)]Q[Dab]G[dPro(4R-Bzl(4-F))])) | 10.57
9 | CC(=O)NCCOc1ccc(C[C@@H]2NC(=O)[C@H]3C[C@@H](Cc4ccc(F)cc4)CN3C(=O)CNC(=O)[C@H](CN)NC(=O)[C@H](CCC(N)=O)NC(=O)[C@H](Cc3cncnc3)NC(=O)C(C)(C)NC(=O)[C@H](Cc3c[nH]c4ccccc34)NC(=O)[C@H](CCC(=O)O)NC(=O)C(C)(C)NC(=O)[C@H]([C@@H](C)c3c[nH]c4cccc(F)c34)NC(=O)[C@@H]3C[C@H](F)CN3C(=O)CNC(=O)[C@H](Cc3ccc(C(=O)O)cc3)NC(=O)[C@H](Cc3ccncc3)NC2=O)cc1 [Example 11] (cyclo([AEF](Ac)[4Pal][Phe(4-COOH)]G[Pro(cis-4-F)][Trp(βS-Me,4-F)][Aib]EW[Aib][Ala(pyrimidin-5-yl)]Q[Dap]G[dPro(4R-Bzl(4-F))])) | 10.35
10 | CC(=O)NCCOc1ccc(C[C@@H]2NC(=O)[C@H]3C[C@@H](Cc4ccc(F)cc4)CN3C(=O)CNC(=O)[C@H](CCN)NC(=O)[C@H](CCC(N)=O)NC(=O)[C@H](Cc3cncnc3)NC(=O)C(C)(C)NC(=O)[C@H](Cc3c[nH]c4ccccc34)NC(=O)[C@H](CCC(=O)O)NC(=O)C(C)(C)NC(=O)[C@H]([C@@H](C)c3c[nH]c4cccc(F)c34)NC(=O)[C@@H]3C[C@H](F)CN3C(=O)CNC(=O)[C@H](Cc3ccc(C(=O)O)cc3)NC(=O)[C@H](Cc3ccncc3)NC2=O)cn1 [Example 12] (cyclo([X3][4Pal][Phe(4-COOH)]G[Pro(cis-4-F)][Trp(βS-Me,4-F)][Aib]EW[Aib][Ala(pyrimidin-5-yl)]Q[Dab]G[dPro(4R-Bzl(4-F))])) | 10.14
